Data reported in patent US20090227597A1, “PYRAZOLOPYRIMIDINONES AS PHOSPHODIESTERASE INHIBITORS” (CTG PHARMA S.R.L., priority 2004, published 2009).
Structures can show the parent of a compound that is named as a salt.

Experiments:
PDE5 enzyme = PDE5 enzyme (Homo sapiens, UniProt O76074); assay: in vitro inhibition of cGMP PDE5; format: biochemical
Excerpt: The compounds of the present invention have been tested in vitro and found to be potent and selective inhibitors of cGMP PDE5.

| melting point | IC50 (PDE5 enzyme) | SMILES |
| --- | --- | --- |
| 166 to 168 °C |  | CCCc1nn(C)c2c(=O)[nH]c(-c3cc(S(=O)(=O)N4CCN(CC(=O)N[C@@H](CS)C(=O)O)CC4)ccc3OCC)nc12 (as salt: salt) (hydrate or solvate) [Example 2, sildenafil analog amide with cysteine] |
| 188 to 189 °C | 6.8 to 7.2 nM | CCCc1nn(C)c2c(=O)[nH]c(-c3cc(S(=O)(=O)N4CCN(CC(=O)Oc5ccc(-c6cc(=S)ss6)cc5)CC4)ccc3OCC)nc12 [Example 1, sildenafil analog ester with 5-(p-hydroxyphenyl)-3H-1,2-dithiol-3-thione] |
|  | 6.8 to 7.2 nM | CCCc1nn(C)c2c(=O)[nH]c(-c3cc(S(=O)(=O)N4CCN(CC(=O)N[C@@H](CS)C(=O)O)CC4)ccc3OCC)nc12 [Example 2, sildenafil analog amide with cysteine] |
